This note sets out measurements from publication PMC4116524, “A virtual screen identified C96 as a novel inhibitor of phosphatidylinositol 3-kinase that displays potent preclinical activity against multiple myeloma in vitro and in vivo” (Oncotarget, 2014).

The subject of data set [1] is AKT phosphorylation in LP1 cells. The experiment in a line: IGF-1-stimulated AKT phosphorylation, immunoblotting. The class given is cell-based. To be noted: for decrease in AKT phosphorylation: LP1 cells, 2-hr treatment, IGF-1 15 min. The protocol: (§1) MM cell lines LP1 and OPM2 were starved overnight before being treated with C96 (0–100 μM) or S14161 (100 μM, a positive control) for a short period (2 hrs), followed by IGF-1 stimulation for 15 min. […] (Figure 2A). In LP1 cells, C96 at 25 μM and 50 μM led to a 50% and 90% decrease in AKT phosphorylation, respectively, in the 2-hr treatment. […] In the time-course study, AKT activation was suppressed by C96 at 50 μM within 0.5 hrs (30 min) (Figure 2B).
(§2) Figure 2 C96 inhibits AKT and mTOR signaling (A) LP1 and OPM2 were starved overnight, then treated with C96 at the indicated concentrations, or 100 μM of S14161 for 2 hrs, followed by IGF-1 (100 ng/mL) for 15 min. Cells were collected for the analysis of the expression of p-AKT and total AKT (T-AKT) by immunoblotting. (B) LP1 and OPM2 cells were starved overnight, then treated with C96 (50 μM) for different time periods, or S14161 (100 (μM) for 2 hrs, followed by IGF-1 (100 ng/mL) for 15 min. Cells were for the analysis of the expression of p-AKT and T-AKT by immunoblotting. (C) LP1, OPM2, and JJN3 cells were treated with C96 at the indicated concentrations for 24 hrs. Cell lysates were prepared and subjected to immunoblotting assay against p-AKT, AKT, p-mTOR, mTOR, p-4E-BP1, and 4E-BP1. GAPDH was used as a loading control.
(§3) Cells were treated with or without C96 for 24 hrs before being applied to lysate preparation in a lysis buffer (50 mM Tris-HCI, pH 7.4, 1% NP-40, 0.5% Na-deoxycholate, and 0.1% SDS, 150 mM NaCl, 2 mM EDTA, 2 mM Na3VO4, and 5 mM NaF). Equal amounts (30 μg) of total proteins were subjected to sodium dodecyl sulfate–polyacrylamide gel electrophoresis (SDS-PAGE) separation, followed by immunoblotting analyses with specific antibodies. Antibodies against PARP, caspase-3, AKT, p-AKT(S473), 4E-BP1, p-4E-BP1(S65), IGF-1R, p-IGF-1R, ERK(p42/p44), and p-ERK(p42/p44) were purchased from Cell Signaling Technologies. Antibodies against mTOR, p-mTOR(S2448), p70S6K, p-p70S6K(S424), and GAPDH were obtained from Abgent (Suzhou, China). Horseradish peroxidase-conjugate secondary antibodies against mouse or rabbit and GAPDH were purchased from Abgent. All immunoblotting signals were further analyzed with Quality One Quality One software (Bio-Rad, Berkeley, CA, USA).
A general note: Immunoblotting shows a protein as a band on a membrane.

Data set [2] has as its system AKT phosphorylation in OPM2 cells. Described as above. To be noted: OPM2 cells (no PTEN), 2 hrs, IGF-1 15 min. The class given is cell-based. The protocol:
as §1, §2, §3

The test system of data set [3] is KMS11 cells. The experiment in a line: Flow cytometric analysis of apoptosis (Annexin V-FITC/PI). The class given is cell-based. To be noted: KMS11, C96 10 μM, 24 hrs; two quadrant values. On the procedure: (§4) MM cells treaded with C96 at concentrations from 0 to 20 μM, 24 hrs later, cells were stained with Annexin V-FITC and PI according to the manufacturer's instruction (Sigma, St Louis, MO). Apoptotic cells were measured on a flow cytometer (FACSCalibur, Becton Dickinson) as reported as previously.

In data set [4] the test system is OPM2 cells. The data set is described as above. It counts as cell-based. The note with it: OPM2, C96 10 μM, 24 hrs; two quadrant values. The protocol: as §4
In data set [5] the test system is RPMI-8226 (8226) cells. The data set is described as above. It counts as cell-based. To be noted: 8226, C96 10 μM, 24 hrs; two quadrant values. The protocol: as §4
For data set [6], the system named is JJN3 xenograft. The experiment in a line: Myeloma xenograft study. It counts as in vivo, nude mice. On the procedure:
To further evaluate the anti-myeloma efficacy of C96 in vivo, a human multiple myeloma xenograft model was established by subcutaneous injection of JJN3 into nude mice. When these tumors were palpable, mice were randomly divided into two groups (n=5) and one of them were orally administrated C96 (100 mg/kg body weight, 1/10 of the oral LD50), the other one were given the same volume of vehicle on a daily base for continued 16 days. Tumor sizes and body weight were monitored every other day. […] In contrast, the tumors in the vehicle group grew in a steady rate.
Figure 7 C96 delays myeloma tumor growth in a xenograft mouse model (A) JJN3 cells were injected subcutaneously into nude mice with a density of 30 million cells/site/mouse. When tumors were palpable, mice (n=5/group) were orally given C96 (100 mg/kg body weight) in PBS containing 10% Tween 80 and 10% DMSO daily for continuous 16 days. Tumor volumes were monitored every other day. (B) Mouse body weight was monitored every other day. (C) At the end of the experiment, tumor samples from each group were subjected to immunoblotting analysis for the expression levels of p-AKT, T-AKT, p-mTOR and mTOR with specific antibodies. GAPDH was used as a loading control.
JJN3 cells (30 million cells/injection) were inoculated s.c. into the right flanks of nude mice (5-6 weeks old, female, Shanghai Slac Laboratory Animal Co. Ltd., Shanghai). When tumors were palpable, mice were randomly divided into two groups (n=5). One group was orally administrated C96 (100 mg/kg body weight, or 1/10 oral LD50) dissolved in PBS containing 10% Tween 80 and DMSO daily for continued 16 days, another group was received the vehicle only. Tumor sizes were measured every other day with a caliper and calculated according to the formula (V=0.5236a²b, where a is the smallest superficial diameter and b is the largest superficial diameter). Body weight of each mouse was also monitored. At the end of the experiment, mice were sacrificed in a CO2 chamber containing dry ice. Tumor tissues were then excised, weighed, and snap-frozen in liquid nitrogen for further studies. To examine protein expression, tumor tissues were minced and ultrasonicated in the lysis buffer to extract proteins, which were further applied for immunoblotting analyses using specific antibodies against AKT, p-AKT, p-mTOR, mTOR, and GAPDH. This xenograft study was carried out in accordance with The Code of Ethics of the World Medical Association (Declaration of Helsinki) for experiments in animals and it was approved by the Animal Ethics and Welfare Review Board of Soochow University.

Values joined by “and” are separate entries in the source; they are usually repeats but may differ in a detail not shown here. Identical values can stand only once. “Also recorded” adds a separate entry of the source.

`O=C1NC(=O)C(=CC=Cc2cccs2)C(=O)N1` [C96, 5-(3-(2-thienyl)-2-propen-1-ylidene)-2,4,6(1H,3H,5H)-pyrimidinetrione]: in data set [1] (50 μM, time-course study, LP1 and OPM2 (Figure 2B)), the “time within which AKT activation was suppressed” value is no more than 0.5 h. Further, the figures for the “decrease in AKT phosphorylation” value in data set [1] (25 μM) and in data set [1] (50 μM) were 50% and 90%, respectively. In data set [2], the AKT phosphorylation entry is “markedly decreased”. Also, the “Annexin V/PI flow cytometry quadrant percentages” value in data set [3] is 4.28% and 1.91%; in data set [4] it was 42.12% and 21.89%; in data set [5] it was 13.50% and 15.66%. In data set [6] (100 mg/kg oral daily, 16-day treatment), the “effects on body weight” value is listed as “minimal effects”. Besides, in data set [6] (100 mg/kg oral daily, 16 days), the gross toxicity entry is on record as “no gross toxicity”. In data set [6] (100 mg/kg oral daily, 16 days), the tumor growth result is recorded as “almost fully suppressed tumor growth; also recorded: delayed MM tumor growth”. The tumor growth suppression entry in data set [6] (100 mg/kg oral daily, within 16 days) is listed as “more than 90%”. Besides, in data set [6] (tumors excised at end of experiment, immunoblotting), the “AKT and mTOR phosphorylation in myeloma tumor tissues” value is “decreased”.
